Assay results published in the supplement of paper PMC10307832.

Key:
Assay in all cases: relative viability (nuclei count vs DMSO), 5 days (fraction); higher = more cells survive
[1] = compound: C1=CC2=C(C=C(C(=C2N=C1)O)N=NC3=CC4=C(C=C3)C=C(C=C4)S(=O)(=O)O)S(=O)(=O)O + C[C@@H](Oc1cc(-c2cnn(C3CCNCC3)c2)cnc1N)c1c(Cl)ccc(F)c1Cl [Crizotinib] (partner 1 µM)
Method in brief: (§1)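 For relative viability, nuclei counts in treated wells were divided by those in vehicle wells. Lung cancer cell lines had been pin-tool dosed in 1536-well plates the day after seeding and cultured for 5 days, then fixed and stained in one step (final 0.05% Triton X-100, 1% formaldehyde, 1 ug/ml Hoechst) and imaged at 4×. Doses were one drug alone or a fixed anchor-drug dose plus five library-drug doses (not always all listed) in √10 steps, and values are duplicate-plate medians.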

[2] = compound: O=C(NC1CCNCC1)c1n[nH]cc1NC(=O)c1c(Cl)cccc1Cl [AT-7519] + O=C(CCCCCCC(=O)Nc1ccccc1)NO [Vorinostat] (partner 1 µM)
Method in brief: as §1

[3] = compound: C1=CC2=C(C=C(C(=C2N=C1)O)N=NC3=CC4=C(C=C3)C=C(C=C4)S(=O)(=O)O)S(=O)(=O)O + Nc1ncn([C@H]2C[C@H](O)[C@@H](CO)O2)c(=O)n1 [Decitabine] (partner 2 µM)
Method in brief: as §1

[4] = compound: O=C(NC1CCNCC1)c1n[nH]cc1NC(=O)c1c(Cl)cccc1Cl [AT-7519] + Cc1cc(Nc2cc(N3CCN(C)CC3)nc(Sc3ccc(NC(=O)C4CC4)cc3)n2)n[nH]1 [Tozasertib] (partner 0.1 µM)
Method in brief: as §1

Row | Cell Line | relative viability ([1]; first compound 0.08 µM) | relative viability ([1]; first compound 0.253 µM) | relative viability ([1]; first compound 0.8 µM) | relative viability ([1]; first compound 2.53 µM) | relative viability ([1]; first compound 8 µM) | relative viability ([2]; first compound 0.01 µM) | relative viability ([2]; first compound 0.03162 µM) | relative viability ([2]; first compound 0.3162 µM) | relative viability ([2]; first compound 1 µM) | relative viability ([3]; first compound 0.08 µM) | relative viability ([3]; first compound 0.253 µM) | relative viability ([3]; first compound 0.8 µM) | relative viability ([3]; first compound 2.53 µM) | relative viability ([3]; first compound 8 µM) | relative viability ([4]; first compound 0.01 µM) | relative viability ([4]; first compound 0.03162 µM) | relative viability ([4]; first compound 0.3162 µM) | relative viability ([4]; first compound 1 µM)
1 | NCI-H1355 | 1.16 | 1.04 | 0.986 | 1.17 | 1.14 | 0.65 | 0.624 | 0.661 | 0.598 | 0.4 | 0.363 | 0.362 | 0.353 | 0.352 | 0.566 | 0.535 | 0.537 | 0.508
2 | HCC-78 | 0.388 | 0.336 | 0.328 | 0.337 | 0.203 | 0.411 | 0.409 | 0.438 | 0.417 | 0.796 | 0.671 | 0.756 | 0.708 | 0.589 | 0.631 | 0.451 | 0.49 | 0.326
3 | NCI-H1563 | 0.875 | 0.883 | 0.886 | 0.851 | 0.873 |  |  |  |  |  |  |  |  |  |  |  |  | 
4 | HCC-15 | 0.957 | 0.851 | 0.806 | 0.824 | 0.77 | 0.857 | 0.796 | 0.799 | 0.565 | 0.723 | 0.689 | 0.637 | 0.625 | 0.596 | 0.378 | 0.524 | 0.434 | 0.199
5 | EKVX | 0.997 | 0.959 | 1 | 0.894 | 0.915 | 0.671 | 0.636 | 0.535 | 0.786 | 0.334 | 0.366 | 0.366 | 0.325 | 0.263 | 0.454 | 0.389 | 0.403 | 0.531
6 | NCI-H2087 | 1.04 | 0.952 | 0.957 | 0.694 | 0.833 | 1.01 | 0.632 | 0.607 | 0.206 | 0.244 | 0.259 | 0.222 | 0.131 | 0.24 | 0.255 | 0.269 | 0.282 | 0.0867
7 | LK-2 | 0.275 | 0.223 | 0.244 | 0.218 | 0.162 | 0.247 | 0.258 | 0.332 | 0.241 | 0.417 | 0.254 | 0.201 | 0.384 | 0.296 | 0.18 | 0.165 |  | 0.206
8 | NCI-H1437 | 1.07 | 0.894 | 0.897 | 0.909 | 0.919 | 0.815 | 0.842 | 0.929 | 0.353 | 0.603 | 0.567 | 0.655 | 0.586 | 0.566 | 0.418 | 0.399 | 0.402 | 0.34
9 | COR-L23 | 0.653 | 0.63 | 0.572 | 0.671 | 0.502 | 0.508 | 0.507 | 0.344 | 0.152 | 0.495 | 0.448 | 0.421 | 0.508 | 0.407 | 0.177 | 0.189 | 0.148 | 0.144
10 | ABC-1 | 1.07 | 1.33 | 1.01 | 1.27 | 1.23 | 1.16 | 1.14 | 1.01 | 1.28 | 1.14 | 1.16 | 0.936 | 1.39 | 1.09 | 0.199 | 0.155 | 0.189 | 0.195
